The source of these data is publication PMC4138267 (Nature chemical biology, 2014).

Where two headings read alike, the source gives them in different places.

Type in all cases: cell-based
Assay [1] addresses human D2 dopamine receptor (D2LR) (Homo sapiens, UniProt P14416). The assay can be described thus: ERK1/2 phosphorylation assay, Flp-In CHO cells expressing D2LR. The note with it: for Logαβ: cooperativity with dopamine.
Assay [2] addresses N-terminal c-myc-tagged WT D2LR (Homo sapiens, UniProt P14416). Kind of assay: ERK1/2 phosphorylation assay, Flp-In CHO cells, c-myc-tagged WT D2LR. The conditions noted are these: pERK1/2, interaction with dopamine.
A further assay concerns the target Val91^2.61Ala D2LR (Homo sapiens, UniProt P14416, V91A). The conditions noted are these: pERK1/2, interaction with dopamine.
Assay [3] has as its target D2R dimer: WT D2R (protomer A) + D2-Asp114^3.32Ala-Gqi5 (protomer B) (Homo sapiens, UniProt P14416).
Assay [4] addresses D2R dimer: WT D2R (protomer A) + D2R-Gqi5 fusion (protomer B) (UniProt P14416+P21279). The assay can be described thus: Aequorin functional complementation assay, WT:WT pair. The note with it: WT:WT complement pair; 100 µM dopamine.
[5] abbreviates: KB, pERK1/2, probe ligand dopamine.

Sequence of human D2 dopamine receptor (D2LR) (P14416 whole entry): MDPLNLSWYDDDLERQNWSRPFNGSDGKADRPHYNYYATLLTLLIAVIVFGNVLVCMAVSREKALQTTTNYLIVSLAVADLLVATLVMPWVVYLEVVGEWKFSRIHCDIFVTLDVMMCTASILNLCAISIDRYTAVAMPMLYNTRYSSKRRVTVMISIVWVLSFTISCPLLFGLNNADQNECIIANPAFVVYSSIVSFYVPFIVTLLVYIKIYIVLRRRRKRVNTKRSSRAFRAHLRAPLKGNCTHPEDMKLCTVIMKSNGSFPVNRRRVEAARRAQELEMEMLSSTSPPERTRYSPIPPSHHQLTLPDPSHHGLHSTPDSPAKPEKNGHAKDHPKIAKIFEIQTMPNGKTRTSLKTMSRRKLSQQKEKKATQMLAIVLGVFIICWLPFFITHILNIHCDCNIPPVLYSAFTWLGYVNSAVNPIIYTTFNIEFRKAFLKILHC
Sequence of D2R dimer: WT D2R (protomer A) + D2-Asp114^3.32Ala-Gqi5 (protomer B) (P14416 1-414 isoform P14416-2): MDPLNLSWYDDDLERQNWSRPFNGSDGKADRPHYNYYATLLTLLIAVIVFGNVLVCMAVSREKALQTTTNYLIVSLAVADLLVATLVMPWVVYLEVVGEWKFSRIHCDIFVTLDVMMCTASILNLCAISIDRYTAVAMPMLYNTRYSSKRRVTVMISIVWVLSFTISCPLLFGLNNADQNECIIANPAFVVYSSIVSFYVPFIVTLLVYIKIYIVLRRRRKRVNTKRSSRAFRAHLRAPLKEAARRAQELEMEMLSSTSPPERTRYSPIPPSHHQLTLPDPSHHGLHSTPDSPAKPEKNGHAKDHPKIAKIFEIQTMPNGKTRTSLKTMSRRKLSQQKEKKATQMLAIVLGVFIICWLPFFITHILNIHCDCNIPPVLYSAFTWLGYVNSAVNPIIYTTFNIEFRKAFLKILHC
Sequence of N-terminal c-myc-tagged WT D2LR (P14416 whole entry): as the sequence (P14416 whole entry) above
Sequence of Val91^2.61Ala D2LR (P14416 whole entry V91A): as the sequence (P14416 whole entry) above, with V91A counted along it

Compound `CC(=O)N[C@H]1CC[C@H](CCN2CCc3ccc(C#N)cc3C2)CC1` [MIPS1059, N-((trans)-4-(2-(7-cyano-3,4-dihydroisoquinolin-2(1H)yl)ethyl)cyclohexyl)acetamide] gave a Kb in assay [1] of 23.4 nM. For the same compound, the “Schild Slope” value in assay [1] (pERK1/2, probe ligand dopamine) is given as 1.06 ± 0.04.
With `CCCN1CCc2ccc(C#N)cc2C1` [MIPS1071, 2-propyl-1,2,3,4-tetrahydroisoquinoline-7-carbonitrile], the Kb in assay [1] (KB, pERK1/2, probe ligand S-3PPP) is 363 nM; in assay [1] (KB, pERK1/2, probe ligand aripiprazole) it was 575 nM; in assay [1] (setting [5]) it was 380 nM. Also, the Logαβ in assay [1] (pERK1/2) was 1.00 ± 0.08. Also, the “Schild Slope” value in assay [1] (pERK1/2, probe ligand S-3PPP) amounted to 1.11 ± 0.18; in assay [1] (pERK1/2, probe ligand aripiprazole), 0.94 ± 0.18.
For the compound `N#Cc1ccc2c(c1)CCN(CC[C@H]1CC[C@@H](NC(=O)c3cc4ccccc4[nH]3)CC1)C2` [MIPS1217], the Kb in assay [2] amounted to 195 nM; on Val91^2.61Ala D2LR, 891 nM.
Take `N#Cc1ccc2c(c1)CNCC2` [THIQ7C, 1,2,3,4-tetrahydroisoquinoline-7-carbonitrile]: in assay [1] (setting [5]), the Kb is 2510 nM. Also, in assay [1] (pERK1/2), the Logαβ was determined as 1.03 ± 0.18. Moreover, in assay [1] (pERK1/2, probe ligand dopamine), the “fold lower affinity than SB269652” value is on record as 17 fold.
For `CCN1CCCC1CNC(=O)c1cc(S(N)(=O)=O)ccc1OC` (stereo not drawn) [sulpiride], the “extent of antagonism of dopamine” value in assay [3] was “completely antagonized”; in assay [4], “completely inhibited”.
